Measurements taken from US10494368B2, “Pesticidally active tetracyclic derivatives with sulfur containing substituents” (Syngenta Participations AG, priority 2015, dated 2019).

Tests used:
Assay type in all cases: in vivo
[1] = system: Plutella xylostella (Diamond Back Moth); assay: Plutella xylostella on artificial diet; conditions: 120 h, application rate 200 ppm, L2 larvae on artificial diet, 5 days after infestation, read-out: effect in at least one of the two categories (mortality or growth inhibition)
Method: 24-well microtiter plates with artificial diet were treated with aqueous test solutions prepared from 10′000 ppm DMSO stock solutions by pipetting. After drying, the plates were infested with L2 larvae (10 to 15 per well). The samples were assessed for mortality and growth inhibition in comparison to untreated samples 5 days after infestation.
(§1) The following compounds gave an effect of at least 80% in at least one of the two categories (mortality or growth inhibition) at an application rate of 200 ppm: […]

[2] = system: Tetranychus urticae (Two-Spotted Spider Mite); assay: Tetranychus urticae feeding/contact activity on bean leaf discs; conditions: foliar, 192 h
Method: Feeding/contact activity Bean leaf discs on agar in 24-well microtiter plates were sprayed with aqueous test solutions prepared from 10′000 ppm DMSO stock solutions. After drying the leaf discs were infested with a mite population of mixed ages. The samples were assessed for mortality on mixed population (mobile stages) 8 days after infestation.

[3] = system: Euschistus heros (Neotropical Brown Stink Bug); assay: Euschistus heros on soybean leaves, spray; conditions: 120 h, application rate 200 ppm, N2 nymphs on soybean leaves, 5 days after infestation, read-out: effect in at least one of the two categories (mortality or growth inhibition)
Method: Soybean leaves on agar in 24-well microtiter plates were sprayed with aqueous test solutions prepared from 10′000 ppm DMSO stock solutions. After drying the leaves were infested with N2 nymphs. The samples were assessed for mortality and growth inhibition in comparison to untreated samples 5 days after infestation.
as §1

[4] = system: Spodoptera littoralis (Egyptian Cotton Leaf Worm); assay: Spodoptera littoralis, uptake by lettuce roots from agar; conditions: 144 h, test rate 12.5 ppm, compound absorbed by lettuce roots, 6 days after infestation, read-out: effect in at least one of the three categories (mortality, anti-feeding, or growth inhibition)
From the text: Test compounds were applied by pipette from 10′000 ppm DMSO stock solutions into 24-well plates and mixed with agar. Lettuce seeds were placed onto the agar and the multi well plate was closed by another plate which contained also agar. After 7 days the compound was absorbed by the roots and the lettuce grew into the lid plate. The lettuce leaves were then cut off into the lid plate. Spodoptera eggs were pipetted through a plastic stencil onto a humid gel blotting paper and the lid plate was closed with it. The samples were assessed for mortality, anti-feedant effect and growth inhibition in comparison to untreated samples 6 days after infestation.
The following compounds gave an effect of at least 80% in at least one of the three categories (mortality, anti-feeding, or growth inhibition) at a test rate of 12.5 ppm: A3, A4, A5, A6, A8, A10, B3, B4, B5 and C2.

[5] = system: Aedes aegypti (Yellow Fever Mosquito); assay: Aedes aegypti adult contact test on dried deposits; conditions: application rate 200 ppm in ethanol, adult females, after 48 h and/or 24 h
Method: Test solutions, at an application rate of 200 ppm in ethanol, were applied to 12 well tissue culture plates. Once the deposits were dry, five, two to five day old adult female Aedes aegypti were added to each well, and sustained with a 10% sucrose solution in a cotton wool plug. Assessment of knockdown was made one hour after introduction, and mortality was assessed at 24 and 48 hours after introduction.
The following compounds gave at least 80% control of Aedes aegypti after 48 h and/or 24 h: […]

[6] = system: Diabrotica Balteata (Corn Root Worm); assay: Diabrotica balteata on maize sprouts, spray; conditions: 96 h, application rate 200 ppm, L2 larvae on maize sprouts, 4 days after infestation, read-out: effect in at least one of the two categories (mortality or growth inhibition)
Method: Maize sprouts placed onto an agar layer in 24-well microtiter plates were treated with aqueous test solutions prepared from 10′000 ppm DMSO stock solutions by spraying. After drying, the plates were infested with L2 larvae (6 to 10 per well). The samples were assessed for mortality and growth inhibition in comparison to untreated samples 4 days after infestation.
as §1

[7] = system: Spodoptera littoralis (Egyptian Cotton Leaf Worm); assay: Spodoptera littoralis on cotton leaf discs, spray; conditions: foliar, 72 h, application rate 200 ppm, L1 larvae on cotton leaf discs, 3 days after infestation
Method: Cotton leaf discs were placed onto agar in 24-well microtiter plates and sprayed with aqueous test solutions prepared from 10′000 ppm DMSO stock solutions. After drying the leaf discs were infested with five L1 larvae. The samples were assessed for mortality, anti-feeding effect, and growth inhibition in comparison to untreated samples 3 days after infestation. Control of Spodoptera littoralis by a test sample is given when at least one of the categories mortality, anti-feedant effect, and growth inhibition is higher than the untreated sample.

[8] = system: Bemisia tabaci (Cotton White Fly); assay: Bemisia tabaci feeding/contact activity on cotton leaf discs; conditions: foliar, 144 h, application rate 200 ppm, adult white flies on cotton leaf discs, 6 days after incubation
Method: Feeding/contact activity Cotton leaf discs were placed on agar in 24-well microtiter plates and sprayed with aqueous test solutions prepared from 10′000 ppm DMSO stock solutions. After drying the leaf discs were infested with adult white flies. The samples were checked for mortality 6 days after incubation.

[9] = system: Myzus persicae (Green Peach Aphid); assay: Myzus persicae feeding/contact activity on sunflower leaf discs; conditions: foliar, 144 h, application rate 200 ppm, aphid population of mixed ages on sunflower leaf discs, 6 days after infestation
Method: Feeding/Contact activity Sunflower leaf discs were placed onto agar in a 24-well microtiter plate and sprayed with aqueous test solutions prepared from 10′000 ppm DMSO stock solutions. After drying, the leaf discs were infested with an aphid population of mixed ages. The samples were assessed for mortality 6 days after infestation.

[10] = system: Myzus persicae (Green Peach Aphid); assay: Myzus persicae intrinsic activity (sucrose solution, Parafilm); conditions: 120 h, test rate 12 ppm, 5 days after infestation
Method: Intrinsic activity Test compounds prepared from 10′000 ppm DMSO stock solutions were applied by pipette into 24-well microtiter plates and mixed with sucrose solution. The plates were closed with a stretched Parafilm. A plastic stencil with 24 holes was placed onto the plate and infested pea seedlings were placed directly on the Parafilm. The infested plate was closed with a gel blotting paper and another plastic stencil and then turned upside down. The samples were assessed for mortality 5 days after infestation.

CCSc1c(-c2nc3cc(SC(F)(F)F)cnc3n2C)sc2cc(Br)ccc12 [Compound A3, 2-(6-bromo-3-ethylsulfanyl-benzothiophen-2-yl)-3-methyl-6-(trifluoromethylsulfanyl)imidazo[4,5-b]pyridine]
≥ 80%: percent effect (mortality or growth inhibition) at 200 ppm [1] | mortality at 200 ppm [2] | percent effect (mortality or growth inhibition) at 200 ppm [3] | percent effect (mortality, anti-feeding or growth inhibition) at 12.5 ppm [4] | pest or weed control at 200 ppm [5] | percent effect (mortality or growth inhibition) at 200 ppm [6] | percent control (mortality, anti-feedant effect or growth inhibition) at 200 ppm [7]

CCS(=O)(=O)c1c(-c2nc3cc(C(F)(F)F)ncc3n2C)sc2cc(C(F)(F)F)ccc12 [Compound B4, 2-[3-ethylsulfonyl-6-(trifluoromethyl)benzothiophen-2-yl]-3-methyl-6-(trifluoromethyl) imidazo[4,5-c]pyridine]
≥ 80%: percent effect (mortality or growth inhibition) at 200 ppm [1] | percent effect (mortality or growth inhibition) at 200 ppm [3] | percent effect (mortality, anti-feeding or growth inhibition) at 12.5 ppm [4] | pest or weed control at 200 ppm [5] | percent effect (mortality or growth inhibition) at 200 ppm [6] | mortality at 200 ppm [8] | percent control (mortality, anti-feedant effect or growth inhibition) at 200 ppm [7] | mortality at 200 ppm [9]

CCS(=O)(=O)c1c(-c2nc3cc(C(F)(F)F)cnc3n2C)sc2cc(Br)ccc12 [Compound A8, 2-(6-bromo-3-ethylsulfonyl-benzothiophen-2-yl)-3-methyl-6-(trifluoromethyl)imidazo[4,5-b]pyridine]
≥ 80%: percent effect (mortality or growth inhibition) at 200 ppm [1] | percent effect (mortality or growth inhibition) at 200 ppm [3] | percent effect (mortality, anti-feeding or growth inhibition) at 12.5 ppm [4] | pest or weed control at 200 ppm [5] | percent effect (mortality or growth inhibition) at 200 ppm [6] | mortality at 200 ppm [8] | percent control (mortality, anti-feedant effect or growth inhibition) at 200 ppm [7] | mortality at 200 ppm [9]

CCS(=O)(=O)c1c(-c2nc3cc(C(F)(F)F)cnc3n2C)sc2cc(C(F)(F)F)ccc12 [Compound A6]
≥ 80%: percent effect (mortality or growth inhibition) at 200 ppm [1] | percent effect (mortality or growth inhibition) at 200 ppm [3] | percent effect (mortality, anti-feeding or growth inhibition) at 12.5 ppm [4] | pest or weed control at 200 ppm [5] | percent effect (mortality or growth inhibition) at 200 ppm [6] | mortality at 200 ppm [8] | percent control (mortality, anti-feedant effect or growth inhibition) at 200 ppm [7] | mortality at 200 ppm [9]

CCSc1c(-c2nc3cnc(C(F)(F)F)cc3n2C)sc2ccccc12 [Compound B1, 2-(3-ethylsulfanylbenzothiophen-2-yl)-1-methyl-6-(trifluoromethyl)imidazo[4,5-c]pyridine]
≥ 80%: percent effect (mortality or growth inhibition) at 200 ppm [1] | percent effect (mortality or growth inhibition) at 200 ppm [6] | mortality at 12 ppm [10] | mortality at 200 ppm [9]

CCSc1c(-c2nc3cc(C(F)(F)F)ncc3n2C)sc2cc(C(F)(F)F)ccc12 [Compound B3, 2-[3-ethylsulfanyl-6-(trifluoromethyl)benzothiophen-2-yl]-3-methyl-6-(trifluoromethyl)imidazo[4,5-c]pyridine]
≥ 80%: percent effect (mortality or growth inhibition) at 200 ppm [1] | percent effect (mortality or growth inhibition) at 200 ppm [3] | percent effect (mortality, anti-feeding or growth inhibition) at 12.5 ppm [4] | pest or weed control at 200 ppm [5] | percent effect (mortality or growth inhibition) at 200 ppm [6] | mortality at 12 ppm [10] | percent control (mortality, anti-feedant effect or growth inhibition) at 200 ppm [7]
